Patent publication US11040029B2, “Methods for the administration of certain VMAT2 inhibitors” (Neurocrine Biosciences, Inc., priority 2017, dated 2021)
Entries after “also recorded” stand apart in the source; their conditions may differ. Like-named read-outs stand apart in the source and are kept apart here.

Legend:
[1] = Metabolic stability in human liver microsomes with/without quinidine; conditions: both, human, microsomes, pH 7.4
Experimental: (§1) Incubation volumes were 250 μL for liver microsomes and 100 μL for hepatocytes. The liver microsomal incubation mixtures contained potassium phosphate buffer (50 mM, pH 7.4) with an NADPH-generating system which consisted of NADP (1 mM), glucose-6-phosphate (5 mM), MgCl2 (3 mM), EDTA (1 mM) and glucose-6-phosphate dehydrogenase (1 Unit/mL) at the final concentrations indicated. The hepatocyte incubation was in KHB buffer. Cryopreserved human hepatocytes were thawed according to the supplier's instruction, and pooled from three female donors. […] Aliquots of supernatant fractions were analyzed by an LC/MS/MS method using an Acquity UPLC liquid chromatography system with an Acquity BEH C18, 1.7 μm (2.1×100 mm) column and the MassLynx 4.1 with QuanLynx data acquisition and processing software, each available from Waters Corp., Milford, Mass.
(§2) Dextromethorphan was used as a positive control. Briefly, the concentration-time data were fitted by nonlinear regression with the following equation: Ct/C0=e^−kt where Ct is the substrate concentration at time t and C0 is the initial concentration (1 μM) at time 0. In the calculations, the area ratio of the substrate peak to an internal standard peak is proportional to the analyte concentration and used for regression analysis to get the value of k. Then the in vivo intrinsic clearance (CLint) can be predicted using the equations below with an assumption that C0 is much lower than Km, a constant that is equal to the substrate concentration at which an enzyme reaction proceeds at half the maximum velocity.

CYP2D6 [2] = assay: as above
Experimental: as §1, §2

[3] = Metabolic stability in cryopreserved human hepatocytes with/without quinidine; conditions: female, human, hepatocytes
Experimental: as §1, §2

CYP2D6 [4] = assay: as above
Experimental: as §1, §2

[5] = Healthy volunteer studies, coadministration of NBI-98854 with strong CYP2D6 inhibitors; type: in vivo, human; conditions: NBI-98854 coadministered with strong CYP2D6 inhibitors; preliminary data
[6] = Phase 3 clinical trial in tardive dyskinesia, plasma concentrations; type: in vivo, human; conditions: valbenazine 40 or 80 mg once daily, Weeks 2, 4, 6
Experimental: A Phase 3 clinical trial for patients with tardive dyskinesia (TD) and a psychiatric diagnosis (i.e., schizophrenia/schizoaffective disorder, mood disorder) who received once-daily valbenazine 40 or 80 mg for 6 weeks was also conducted.
Plasma samples for determination of plasma valbenazine and [+]-α-HTBZ concentrations were obtained at Weeks 2, 4, and 6. Plasma valbenazine and [+]-α-HTBZ concentrations were determined using validated HPLC-MS/MS methods. PK parameters were determined using standard non-compartmental methods. Dose-normalized plasma concentrations of valbenazine and [+]-α-HTBZ at Weeks 2, 4, and 6 in the subgroup of patients prescribed concomitant potent CYP2D6 inhibitors (paroxetine, fluoxetine, duloxetine, sertraline, or bupropion) were compared by t-test to respective concentrations in patients not receiving a CYP2D6 inhibitor.

[7] = test system: more than 80 targets (GPCRs, cell-surface monoamine transporters, ion channels including HERG); assay: Cerep multi-target activity screen; type: binding; conditions: broad panel screen
human VMAT1 transporter = target: T1, human VMAT1 transporter (Homo sapiens, UniProt P54219); assay: Uptake in cells expressing VMAT1; type: cell-based; conditions: concentrations up to 10 μM
T1 construct: expressed in transfected cells
T1 sequence (P54219 1-525): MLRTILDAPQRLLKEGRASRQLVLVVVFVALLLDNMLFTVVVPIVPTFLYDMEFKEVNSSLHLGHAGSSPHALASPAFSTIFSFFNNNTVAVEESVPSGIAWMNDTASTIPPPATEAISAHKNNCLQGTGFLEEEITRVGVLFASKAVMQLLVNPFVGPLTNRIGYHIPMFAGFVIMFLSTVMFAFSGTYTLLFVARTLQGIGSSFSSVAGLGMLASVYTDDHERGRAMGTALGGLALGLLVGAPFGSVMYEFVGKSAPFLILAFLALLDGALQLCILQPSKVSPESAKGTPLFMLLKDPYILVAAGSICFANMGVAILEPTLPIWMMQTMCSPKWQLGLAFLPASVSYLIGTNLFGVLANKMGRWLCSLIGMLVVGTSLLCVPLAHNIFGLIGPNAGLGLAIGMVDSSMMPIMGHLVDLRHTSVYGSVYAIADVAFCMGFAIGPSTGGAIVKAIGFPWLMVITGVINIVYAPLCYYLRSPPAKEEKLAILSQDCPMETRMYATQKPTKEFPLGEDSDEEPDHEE

[8] = Plasma concentrations of circulating metabolites of VBZ; type: in vivo; conditions: after VBZ
CYP2D6 [9] = conditions: both, human, microsomes, 1 μM, pH 7.4
Experimental: as §1, §2

CYP2D6 [10] = conditions: female, human, hepatocytes, 1 μM
Experimental: as §1, §2

[11] = test system: CYP2D6, CYP1A1, CYP1A2, CYP1B1, CYP3A4 and CYP3A5; conditions: 1 μM, pH 7.4
in vitro [12] = conditions: both, human, microsomes, pH 7.4
Experimental: as §1, §2

CYP2D6 [13] = assay: in vitro; conditions: both, human, microsomes, pH 7.4
Experimental: as §1, §2

in vitro [14] = conditions: female, human, hepatocytes
Experimental: as §1, §2

CYP2D6 [15] = assay: in vitro; conditions: female, human, hepatocytes
Experimental: as §1, §2

[16] = test system: dopamine, serotonin and adrenergic receptor subtypes; assay: Detailed radioligand binding assays, monoamine receptors; conditions: for interaction with D1 and D2 receptors: radioligand binding assays and broad panel screen
[17] = in vivo; cited from earlier work
[18] = Prolactin release, in vivo surrogate measure
[19] = with concomitant CYP2D6 inhibitors
[20] = without concomitant CYP2D6 inhibitors

COc1ccc2c(c1)[C@]13CCCC[C@@H]1[C@H](C2)N(C)CC3 [Dextromethorphan]
CLint scaled at 1 μM [1]: 50 mL/min/kg
CLint scaled at 1 μM (CYP2D6 [2]; both, human, microsomes, pH 7.4): 8 mL/min/kg
% Contribution by CYP2D6 (CYP2D6 [2]; human liver microsomes): 84.0%
inhibition of intrinsic clearance in the presence of quinidine (CYP2D6 [2]; quinidine 3 μM, text summary for microsomes and hepatocytes): more than 80%
CLint scaled at 1 μM [3]: 22.6 mL/min/kg
CLint scaled at 1 μM (CYP2D6 [4]; female, human, hepatocytes): 3.23 mL/min/kg
% Contribution by CYP2D6 (CYP2D6 [4]; human hepatocytes): 85.8%

COc1cc2c(cc1OC)[C@H]1C[C@@H](O)[C@H](CC(C)C)CN1CC2 [R,R,R-DHTBZ, (2R,3R,11bR)-3-isobutyl-9,10-dimethoxy-1,3,4,6,7,11b-hexahydro-2H-pyrido[2,1-a]isoquinolin-2-ol]
increase of area under the plasma concentration versus time curve (AUC) [5]: approximately 2 fold
increase of maximum plasma concentration (Cmax) [5]: approximately 2 fold
Mean (±SD) dose-normalized plasma concentration [6, 19]: 0.534 ± 0.321 ng/mL/mg
Mean (±SD) dose-normalized plasma concentration [6, 20]: 0.513 ± 0.326 ng/mL/mg
affinity for more than 80 binding sites [7]: little to no affinity
inhibition of uptake through VMAT1 (human VMAT1 transporter): no significant inhibitory activity; also recorded: no significant effect
decline of plasma concentrations, half-life [8]: half-lives similar to VBZ
% Contribution by CYP2D6 (CYP2D6 [9]): 62.6%
% Contribution by CYP2D6 (CYP2D6 [10]): 54.3%
enzymes catalyzing oxidative metabolism in human liver [11]: in part catalyzed by CYP2D6, with some contribution from CYP1A1, CYP1A2, CYP1B1, CYP3A4 and CYP3A5
CLint scaled at 1 μM (in vitro [12]): 10.4 mL/min/kg
CLint scaled at 1 μM (CYP2D6 [13]): 3.9 mL/min/kg
CLint scaled at 1 μM (in vitro [14]): 8.8 mL/min/kg
CLint scaled at 1 μM (CYP2D6 [15]): 4 mL/min/kg
specificity for VMAT2 versus monoamine receptor subtypes [16]: high specificity

COC(=O)[C@H]1[C@H]2C[C@@H]3c4[nH]c5cc(OC)ccc5c4CCN3C[C@H]2C[C@@H](OC(=O)c2cc(OC)c(OC)c(OC)c2)[C@@H]1OC [reserpine, reference compound]
inhibition of uptake through VMAT1 (human VMAT1 transporter): substantially inhibited uptake through VMAT1

COc1cc2c(cc1OC)[C@@H]1C[C@@H](O)[C@@H](CC(C)C)CN1CC2 [R,S,S-DHTBZ]
interaction with D1 and D2 receptors [16]: interact with D1 and D2 receptors

COc1cc2c(cc1OC)[C@@H]1C[C@H](O)[C@@H](CC(C)C)CN1CC2 [S,S,S-DHTBZ]
interaction with D1 and D2 receptors [16]: interact with D1 and D2 receptors

COc1cc2c(cc1OC)[C@H]1C[C@@H](OC(=O)[C@@H](N)C(C)(C)O)[C@H](CC(C)C)CN1CC2 [NBI-136110]
affinity for more than 80 binding sites [7]: little to no affinity
inhibition of uptake through VMAT1 (human VMAT1 transporter): no significant inhibitory activity; also recorded: no significant effect
decline of plasma concentrations, half-life [8]: half-lives similar to VBZ

α-dihydrotetrabenazine
increase of AUC [17]: ~3 fold
increase of Cmax [17]: approximately 30%

COc1cc2c(cc1OC)C1CC(=O)C(CC(C)C)CN1CC2 (stereo not drawn) [TBZ, tetrabenazine, reference compound]
inhibition of uptake through VMAT1 (human VMAT1 transporter): no significant inhibitory activity; also recorded: no significant effect
increase in serum prolactin levels [18]: increase in serum prolactin levels

COc1cc2c(cc1OC)[C@H]1C[C@@H](OC(=O)[C@@H](N)C(C)C)[C@H](CC(C)C)CN1CC2 [Valbenazine, (S)-2-amino-3-methyl-butyric acid (2R,3R,11bR)-3-isobutyl-9,10-dimethoxy-1,3,4,6,7,11b-hexahydro-2H-pyrido[2,1-a]isoquinolin-2-yl ester]
Mean (±SD) dose-normalized plasma concentration [6, 19]: 3.375 ± 2.037 ng/mL/mg
Mean (±SD) dose-normalized plasma concentration [6, 20]: 3.683 ± 2.360 ng/mL/mg
affinity for more than 80 binding sites [7]: little to no affinity
inhibition of uptake through VMAT1 (human VMAT1 transporter; listed as VBZ): no significant inhibitory activity; also recorded: no significant effect
